Where no end group is shown, it is not given here.
Assay: Physiological parameters in ischemic rats
Format: in vivo
Conditions: SN treated vs saline treated rats, n=7
Text: Seven SN treated rats and seven-saline treated rats also had their physiological parameters measured.

TNEIVEEQYTPQSLATLESVFQELGKLTGPNNQ [SN, secretoneurin]
No difference: blood gases | blood glucose | serum electrolyte levels | systemic blood pressure

Reference: patent US7427597B2, “Method of treating brain tissue damages” (Academia Sinica, priority 2005, dated 2008)
